Drawing on PubChem BioAssay (NCI), this text covers TGI and GI50 for 55 compounds.

“And” between values parts separate entries of the source, which are not always exact repeats. Identical values can stand only once.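 48-hour exposure; five concentrations; linearly interpolated endpoints. The concentration for 50% growth inhibition is given as GI50. The concentration for full growth arrest is given as TGI.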 Bounds are passed on as bounds.

Common to all, as to test: NCI-60 cell line screen, 48 h
In assay [1] the test system is NCI-H23 lung.
Assay [2] deals with SW-620 colon.
Assay [3] concerns CAKI-1 renal.
In assay [4] the test system is SF-539 CNS.

Take `CC1(C)OC[C@@]2([C@@H]3CC[C@@H](C3)C2(C)C)N1O`: the TGI in assay [1], in assay [2], in assay [3] and in assay [4] was over 100 µM in each case.
`CC1(C)OC2CN(C(=O)OCc3ccccc3)C(CO)C2O1` (configuration not stated): the TGI in assay [1], in assay [2], in assay [3] and in assay [4] was over 100 µM in each case.
As for `CCOC(=O)C1(Cc2ccccc2)CCN(C(=O)c2ccccc2)C2C1C2(Cl)Cl` (configuration not stated), the TGI is 77 µM in assay [1], over 100 µM in assay [2], 75 µM in assay [3] and 38.5 µM in assay [4].
Taken in the same sequence, the figures for `COC(=O)CC1(O)C(C=C(C)C)C(C(=O)OC)C(=O)C(C(=O)OC)C1C(=O)OC` (configuration not stated) were over 100 µM, over 100 µM, over 100 µM and over 100 µM.
As to `COc1ccc(C2c3cc4c(cc3OC(N3CCOCC3)C2C)OCO4)c(OC)c1` (configuration not stated), the TGI is over 67.9 µM in assay [1], 52.5 µM in assay [2], 62.1 µM in assay [3] and 9.64 µM in assay [4].
Take `c1ccc2c(Cc3c[nH]c4ccccc34)c[nH]c2c1`: the TGI in assay [1] worked out at 38.3 µM; in assay [2], 61.6 µM; in assay [3] it was 31.4 µM.
In the case of `CCO[C@H]1C[C@@H](c2ccccc2)[C@]2(C)C[C@H](C(=O)OC)ON2O1`, the TGI in assay [1], in assay [2], in assay [3] and in assay [4] was over 100 µM in each case.
Regarding `CC1(C)SC2C(NC(=O)Cc3ccccc3)C(=O)N2C1C(=O)O` (configuration not stated), the TGI in assay [1], in assay [2], in assay [3] and in assay [4] was over 100 µM throughout.
Regarding `O=C(CN=C(CN(c1ccccc1)c1ccccc1)Oc1c([N+](=O)[O-])cc([N+](=O)[O-])cc1[N+](=O)[O-])N1CCNCC1`, the TGI in assay [1], in assay [2] and in assay [4] was over 100 µM each time.
Regarding `Cc1ccc(N2C(=O)CC(=O)N(NC(=O)C(C)Oc3ccccc3C)C2=S)cc1` (configuration not stated), the TGI in assay [1], in assay [2], in assay [3] and in assay [4] was over 100 µM each time.
On to `CCOC(=O)CC[C@@H](NC(=O)c1ccc(NCc2ccc3nc(OC)c(OC)nc3c2)cc1)C(=O)OCC`, for which the TGI in assay [1] was over 100 µM; in assay [2], over 100 µM; in assay [3] it was over 100 µM; in assay [4], 45.8 µM.
For `OCC1CCCCN1Cc1nc2ccc(Cl)cc2[nH]1` (configuration not stated), the TGI in assay [1], in assay [2], in assay [3] and in assay [4] was over 100 µM each time.
Turning to `CNC(=O)CNC(=O)CCC(=O)N(C)C`, the TGI in assay [1], in assay [2], in assay [3] and in assay [4] was over 100 µM each time.
In the case of `CCOC(=O)NC(N(C)C(C(C)C)P(=O)(OCC)OCC)(C(F)(F)F)C(F)(F)F` (configuration not stated), the TGI in assay [1], in assay [2], in assay [3] and in assay [4] was over 100 µM in each case.
Regarding `O=C(/C=C/c1ccc(Cl)c(Cl)c1)CCN1CCN(CCC(=O)/C=C/c2ccc(Cl)c(Cl)c2)CC1`, the TGI turned out to be 52.1 µM in assay [2], 31.8 µM in assay [3] and 30.7 µM in assay [4].
Take `Cn1c2ccccc2n2c3ccccc3c(=S)c(C#N)c12`: the TGI in assay [1], in assay [2], in assay [3] and in assay [4] was over 100 µM each time.
Take `CC1=NN(C(=O)CC(=O)Nc2cccc(Cl)c2)C(=O)C1N=Nc1ccc(S(=O)(=O)c2ccc(N=NC3C(=O)N(C(=O)CC(=O)Nc4cccc(Cl)c4)N=C3C)cc2)cc1` (configuration not stated): the TGI in assay [1] was over 100 µM; in assay [2], over 100 µM; in assay [3] it was over 100 µM; in assay [4] it was 55.6 µM.
Take `N#Cc1nc(Cc2ccccc2)oc1N`: the TGI in assay [1], in assay [2], in assay [3] and in assay [4] was over 100 µM throughout.
As for `N#Cc1nsnc1-c1nc(-c2nsnc2C#N)nc(-c2nsnc2C#N)n1`, the TGI in assay [1], in assay [2], in assay [3] and in assay [4] was over 100 µM in each case.
Consider `O=[N+]([O-])/C(C(Cl)=C(Cl)Cl)=C(/Sc1ccccc1)N1CCOCC1`, for which the TGI turned out to be 29.8 µM in assay [1], 6.96 µM in assay [2], 13 µM in assay [3] and 25.5 µM in assay [4].
Taken in the same sequence, the figures for `COc1ccc(NC(C)=O)c(C(=O)CCNC(C)=O)c1` were over 100 µM, over 100 µM, over 100 µM and over 100 µM.
For `C#CCSc1cnc2ccccc2c1Sc1c[nH]c2ccccc2c1=O`, in that order: over 100 µM, over 100 µM, over 100 µM and over 100 µM.
Taken in the same sequence, the figures for `Cc1ccc(-c2c(C#N)c(S)n(NS(=O)(=O)c3ccccc3)c(=O)c2C#N)cc1` were over 100 µM, 70 µM, 92.9 µM and 58.3 µM.
For `c1ccc(-c2cc(-c3cc(-c4ccccc4)n[nH]3)[nH]n2)cc1`, the TGI in assay [1], in assay [3] and in assay [4] was over 100 µM each time.
Consider `CSc1nc(-c2cc3c(c(SC)n2)CCC3)cc2c1CCC2`, for which the TGI in assay [1], in assay [2], in assay [3] and in assay [4] was over 100 µM throughout.
Turning to `CCOP(=O)(OCC)C(Cc1ccccc1)N=C(c1ccccc1)c1ccccc1` (configuration not stated), the TGI in assay [1] was 28.6 µM; in assay [2] it was 25.2 µM; in assay [3], 31.6 µM.
Taken in the same sequence, the figures for `C/C(=N/NC(=S)N(Cc1ccccn1)Cc1ccccn1)c1cnccn1` were 11.4 µM, 49.2 µM and 8.08 µM.
As to `COC(=O)c1ccc(NCC2=CC(=O)c3ccccc3C2=O)cc1`, the TGI in assay [1] worked out at 38.2 µM; in assay [2], 54.5 µM; in assay [3] it was 28 µM; in assay [4], 63.6 µM.
For `O=C1CNc2cc(N3CCN(c4cccc(C(F)(F)F)c4)CC3)ccc2N1`, in that order: over 100 µM, over 100 µM, over 100 µM and over 100 µM.
Taken in the same sequence, the figures for `CO/N=C1/C(n2[nH]c(=O)n(-c3ccccc3)c2=O)C2C=CC1n1c(=O)n(-c3ccccc3)c(=O)n12` (configuration not stated) were over 100 µM, over 100 µM, over 100 µM and over 100 µM.
For `CC(=O)O/C(=C(/C#N)C(=O)O)C1C(C(=O)O)C(c2ccccc2[N+](=O)[O-])C=C(c2ccco2)N1c1ccncc1` (configuration not stated), in that order: 12.7 µM, 3.57 µM, 14.1 µM and 3.89 µM.
`O=[N+]([O-])C(=C/C1CCCCC1)/C(=C\C1CCCCC1)[N+](=O)[O-]`: the TGI is 10.1 µM in assay [1], 17.4 µM in assay [2], 11.1 µM in assay [3] and 9.4 µM in assay [4].
For `C(/C=N/NC1=NCCN1)=N\NC1=NCCN1`, in that order: over 100 µM, over 100 µM, over 100 µM and over 100 µM.
Regarding `COc1cc(/C=C/C(=O)O)ccc1O`, the TGI in assay [1], in assay [2], in assay [3] and in assay [4] was over 100 µM in each case.
In the case of `C=CCOc1ccc(C2c3c([nH][nH]c3=O)CC(C)(O)C2C(=O)OC)cc1OC` (configuration not stated), the TGI in assay [1], in assay [2], in assay [3] and in assay [4] was over 100 µM throughout.
With `OCCCN(CCc1ccc(Cl)c(Cl)c1)CCN1CCCC1`, the TGI in assay [1], in assay [2] and in assay [3] was over 100 µM throughout.
As to `CN(C)CCCNC(=O)CNC(=O)c1cc(NC(=O)c2cc(NC(=O)c3cc(NC(=O)CCNC(=O)c4cc(NC(=O)c5cc(NC(=O)c6nccn6C)cn5C)cn4C)cn3C)cn2C)cn1C`, the TGI in assay [1], in assay [2], in assay [3] and in assay [4] was over 100 µM each time.
In the case of `COc1ccc(CN=C2Nc3ccncc3S(=O)(=O)N2c2ccccc2)cc1`, the TGI in assay [1] was over 100 µM; in assay [2], over 100 µM; in assay [3] it was over 100 µM; in assay [4] it was 33.9 µM.
In the case of `O=C(/C(Cl)=C/c1ccccc1)c1ccccc1`, the TGI came to 26 µM in assay [1], 3.97 µM in assay [3] and 13.1 µM in assay [4].
For `CCOC(=O)c1cc2cc(CSc3ccccc3)ccc2oc1=O`, the TGI in assay [1], in assay [2], in assay [3] and in assay [4] was over 100 µM throughout.
For the compound `CC1CSc2nc3[nH]c(=S)[nH]c3c(=O)n2C1` (configuration not stated), the TGI in assay [1], in assay [2], in assay [3] and in assay [4] was over 100 µM in each case.
As to `C=C(Br)C(Cl)(CBr)CCC(Br)C(C)(C)Cl` (configuration not stated), the TGI in assay [1], in assay [2], in assay [3] and in assay [4] was over 10 µM each time.
In the case of `O=C(c1ccco1)N1CCN(C(=O)c2ccco2)C1=S`, the TGI in assay [1] was determined as 50.3 µM; in assay [2], 24.7 µM; in assay [3], 16.7 µM; in assay [4], 11.2 µM.
Taken in the same sequence, the figures for `Cc1[nH]n(-c2nc(O)c(C)c(=O)[nH]2)c(=O)c1CCO` were over 100 µM, over 100 µM, over 100 µM and over 100 µM.
For `CCCCCC(/C=N/NC(N)=S)C(O)(C(F)(F)F)C(F)(F)F` (configuration not stated), the TGI in assay [1], in assay [2], in assay [3] and in assay [4] was over 10 µM each time.
For the compound `C/C=C/[C@@H]1O[C@H](CC#C[Si](C)(C)C)[C@@]2(C=O)C(C)=CC[C@H](C(C)C)[C@@H]12`, the TGI in assay [1] turned out to be 49.6 µM; in assay [2], 59.5 µM; in assay [3], 5.13 µM; in assay [4], 49.7 µM.
Taken in the same sequence, the figures for `COc1ccc(/C=N/n2c(Cc3ccc(Cl)cc3)n[nH]c2=O)cc1` were over 100 µM, over 100 µM, over 100 µM and over 100 µM.
`Cc1ccc(NC(=S)NNC(=O)c2cc(-c3ccccc3)nc3ccccc23)cc1C`: the TGI in assay [1] is 48.2 µM; in assay [2], over 100 µM; in assay [3], over 100 µM; in assay [4] it was 40.3 µM.
Consider `COc1ccccc1/C=C1/Sc2scc(CC(=O)Nc3ccccc3)[n+]2C1=O`, for which the TGI in assay [1], in assay [2], in assay [3] and in assay [4] was over 100 µM throughout.
Regarding `Cn1c2c(c3ccccc31)CC(=O)N1CCCCC1C21OCCO1` (configuration not stated), the TGI in assay [1], in assay [2] and in assay [3] was over 100 µM each time.
On to `COc1ncc(C#CC(=O)c2ccccc2OC)c(OC)n1`, for which the TGI in assay [1] amounted to 7.56 µM; in assay [2], 2.73 µM; in assay [3], 4.17 µM.
Take `CCOC(=O)c1c(NC(=O)c2ccccc2)sc2c1CCC2`: the TGI in assay [1], in assay [3] and in assay [4] was over 100 µM throughout.
Take `O=[N+]([O-])c1cccc2nc3ccccc3c(NCCNCCO)c12`: the TGI was 0.00448 µM in assay [1]; 0.088 µM in assay [3]; 0.136 µM and 0.0384 µM in assay [4]. In assay [4], the GI50 is 0.0116 µM.
Regarding `N#C[C@](CO)(NC(=O)OCc1ccccc1)C(F)F`, the TGI in assay [1], in assay [2] and in assay [3] was over 100 µM each time.
With `O=S(=O)(NC(c1ccccc1)(c1cc2ccccc2[nH]1)c1cc2ccccc2n1S(=O)(=O)c1ccccc1)c1ccccc1` (configuration not stated), the TGI in assay [1], in assay [2] and in assay [3] was over 100 µM each time.
